Reference: patent US20260131324A1, “A CONTAINER FOR IN VITRO DRUG TESTING” (National University of Singapore, priority 2022, published 2026)

Assays:
[1] = Proof-of-concept model: diffusion through agarose hydrogel container (version 1.0) in modified flow-through cell; assay type: physicochemical; conditions: plateau at about 7 h, PBS with Tween 80
Description: FIG. 4A illustrates a hydrogel container 402 (left) and a modified flow-through cell 404 (right) used as a proof-of-concept model for the diffusion experiment shown in the first flow chart 300A of FIG. 3. The proof-of-concept model was designed to affirm the discriminative power of an agarose hydrogel under continuous media flow. Serving as a physicochemical barrier between drug and media, it is supposed to generate data ascertaining differences in diffusion behaviour and gel interaction of closely related drug formulations. For this, Actrapid® (regular human insulin, hexamer) and Apidra® (insulin glulisine) were chosen as model peptide formulations for the initial setup. m-Cresol, present in both formulations, was quantified as well, serving as an internal standard.
A cylindrical gel that forms both the physicochemical barrier and pocket was prepared with the help of custom-made plastic receptacles. The gel consists of 2% (w/w) agarose dissolved in PBS. […] After cooling at room temperature, the gel is formed and ready to use. […]
FIG. 4B illustrates an assay setup for the proof-of-concept model of FIG. 4A for in vitro drug testing. […] Quantification of insulin and m-cresol in the medium was then carried out by HPLC. Subsequently, the cumulative diffusion of the model drugs was calculated by comparing the diffused amount with the initially added drug concentration. […]

[2] = Diffusion through hydrogel container (version 2.0) in USP apparatus IV, PBS medium; assay type: physicochemical; conditions: at 8.25 h; caffeine stock solution 4 mg/mL, 1 mL; 100 mL PBS; 34 C
Protocol: The compendial flow-through cell 504 of the USP apparatus IV 502 is an enclosed system with a heating mantle that allows a controlled medium flow from the bottom to the top of the cell 504. The ring 114 was mounted onto a cylindrical mould and the gel composition was filled into the mould. A punch was used to create interior pockets of similar size. The drug formulation 106 was then injected into the interior pocket of the receptacle 102, and the ring 114 was sealed with a rubber plug 116. The USP apparatus IV 502, as well as the various flow-through cells 504, have been described by various pharmacopoeias and related literature. For this diffusion experiment, a SOTAX CP7-35 Piston Pump 506, alone with a fraction collector 508 and the SOTAX CE7 dissolution system, was used. Media 510 was filled into the reservoir 512 with magnetic stirrers running at 150 rpm. The dissolution apparatus was operated in a closed-loop configuration with a constant flow of 8±0.4 mL/min for all experiments. […] Caffeine was quantified with a ultraviolet-visible (UV/Vis) spectrometer. Subsequently, the cumulative diffusion of caffeine was calculated by comparing the diffused amount with the initially added drug concentration. […] In the next step, new containers 100 were evaluated with Actrapid® and […]®. […]

SMILES	cumulative diffusion of m-cresol, maximum ([1]; m-cresol inside Apidra) [%]	cumulative diffusion of m-cresol, plateau ([1]; m-cresol inside the Actrapid formulation) [%]	cumulative diffusion of caffeine [2]
Cc1cccc(O)c1 [m-cresol, m-Cresol]	88±0.2	84±1.0	–
Cn1c(=O)c2c(ncn2C)n(C)c1=O [caffeine]	–	–	around 101±3%
